Measurements published in patent US20050107616A1, “Alpha-ketoamide derivatives as cathepsin k inhibitors” (priority 2001, published 2005).

Biological target: T1, human cathepsin K (Homo sapiens, UniProt P43235)
T1 construct: The proform of cathepsin K was converted to mature cathepsin K by brief exposure to pH 4; made in house; host or cells: baculovirus; Trichoplusia ni High Five cells (virus raised in Sf-9)
T1 sequence (P43235 115-329): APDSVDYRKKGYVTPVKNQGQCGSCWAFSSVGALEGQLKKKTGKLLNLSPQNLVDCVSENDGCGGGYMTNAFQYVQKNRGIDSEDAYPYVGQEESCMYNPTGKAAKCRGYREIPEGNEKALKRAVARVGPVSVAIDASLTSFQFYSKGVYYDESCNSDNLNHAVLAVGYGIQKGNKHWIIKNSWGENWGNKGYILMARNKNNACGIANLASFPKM
Test: Cathepsin K inhibition assay, fluorogenic substrate Cbz-Phe-Arg-AMC, progress curve method
Assay type: biochemical
Conditions: Table 1; human recombinant enzyme, pH 5.5, 30° C., 10 μM substrate; read-out: hCat K Ki
Procedure: All assays for cathepsin K were carried out with human and rat recombinant enzyme. Assays for cathepsins S Et V were also carried out with human recombinant enzyme. Assays for human cathepsins B. H. and L were carried out with enzyme, purchased from Athens Research and Technology, Inc., prepared from human liver tissue. […] A stock substrate solution of Cbz-Phe-Arg-AMC was prepared at a concentration of 50 mM in dimethyl sulfoxide. This substrate was diluted into the assay for a final substrate concentration of 10 μM in the rat cathepsin K, human cathepsin K, and human cathepsin B assays; a final substrate concentration of 5 μM in the human cathepsin L assay; and a final substrate concentration of 2 μM in the human cathepsin V assay.
All assays contained 10% dimethyl sulfoxide. […] All assays were conducted at 30° C. Product fluorescence (excitation at 360 nm; emission at 440 nm, (except cathepsin H which used excitation at 340 nm; emission at 420 nm)) was monitored with a PerSeptive Biosystems Cytofluor II fluorescence plate reader. Product progress curves were generated over 2.3 h monitoring the formation of 7-amino-4-methylcoumarin product (or β-naphthalamide for cathepsin H).
Two liters of Spodoptera frugiperda (Sf-9) cells (ATCC) were grown in Grace's Supplemented medium (Life Technologies) supplemented with 2 g/L glucose, 10% a fetal bovine serum (HyClone) and 0.10% pluronic F-68 (Life Technologies). […] The cells continued to grow for 72 h post-infection, before the virus was harvested by centrifugation at 1400× g for 30 min.
One and one-half liters of Trichoplusia ni (T. ni) High Five (TM) cells [JRH Biosciences, Woodland, Calif. […] Media were separated from cells at a rate of 1 L/min using the Centritech 100 (TM) continuous-flow centrifuge (DuPont) operating at 200× g.
Protein Purification: Media (human and rat) were filtered through a Whatman 3 filter, and then loaded onto a 25 mL Poros HS II (26 mm×47 mm) cation exchange column equilibrated in 25 mM sodium acetate at pH 5.5 (equilibration buffer). The column was washed until the absorbance reached the baseline value, and then the protein was eluted with a linear gradient from 0-2 M sodium chloride in the equilibration buffer. Column fractions were analyzed by SDS-PAGE, N-terminal sequencing, and mass spectrometry. Fractions containing the proform of cathepsin K were pooled and frozen at −80° C. The proform was concentrated in an Amicon Centriprep 10 and fractionated with a Superdex 75 column (26 mm×600 mm, Pharmacia) equilibrated in 400 mM sodium chloride, 25 mM sodium acetate at pH 5.5.
Cathepsin K Activation: The proform of cathepsin K was converted to mature cathepsin K by brief exposure to pH 4 in the presence of 5 mM L-cysteine. Typically, 5 mM L-cysteine was added to 10 mL of approximately 1 mg/mL procathepsin K. One mL of this solution was diluted ten-fold into 450 mM sodium acetate at pH 4.0 containing 5 mM L-cysteine. This solution was reacted at 23° C. for 2 min before neutralization with 2 mL 1.8 M sodium acetate at pH 6.0. The neutralized sample was added to the remaining 9 mL of procathepsin K. The mixture was incubated at 4° C. for 2-3 days. The activated cathepsin K was chromatographed on a Poros HS II column as described above.
Potential inhibitors were evaluated using the progress curve method. Assays were carried out in the presence of variable concentrations of test compound. Reactions were initiated by addition of buffered solutions of inhibitor and substrate to enzyme. Data analysis was conducted according to one of two procedures depending on the appearance of the progress curves in the presence of inhibitors. […] Ki values were calculated from IC50 values using equation 2 assuming a competitive model. [formula]

Ki	Structure (SMILES)
0.01 to 1 nM	CCCC[C@H](NC(=O)O[C@H](Cn1ccc(-c2ccncc2)n1)C(C)(C)C)C(=O)C(=O)Nc1ccn[nH]1 [Example 45, (1S)-2,2-dimethyl-1-{[3-(4-pyridinyl)-1H-pyrazol-1-yl]methyl}propyl(1S)-1-[oxo(1H-pyrazol-5-ylamino)acetyl]pentylcarbamate]
0.01 to 1 nM	CCCC[C@H](NC(=O)O[C@H](Cn1ccc(-c2ccc(C(F)(F)F)cc2)n1)C(C)(C)C)C(=O)C(=O)Nc1nccs1 [Example 46, (1S)-2,2-dimethyl-1-({3-[4-(trifluoromethyl)phenyl]-1H-pyrazol-1-yl}methyl)propyl(1S)-1-[oxo(1,3-thiazol-2-ylamino)acetyl]pentylcarbamate]
0.01 to 1 nM	CCCC[C@H](NC(=O)O[C@H](Cc1nnc(-c2ccccc2)o1)C(C)C)C(=O)C(=O)N[C@H](C)c1ccccc1 [Example 10, (1R)-2-methyl-1-[(5-phenyl-1,3,4-oxadiazol-2-yl)methyl]propyl(1S)-1-(oxo{[(1R)-1-phenylethyl]amino}acetyl)pentylcarbamate]
1 to 100 nM	CCCC[C@H](NC(=O)O[C@H](Cc1nnc(-c2ccccc2)o1)C(C)(C)CC)C(=O)C(=O)N[C@H](C)c1ccccc1 [Example 8, (1R)-2,2-dimethyl-1-[(5-phenyl-1,3,4-oxadiazol-2-yl)methyl]butyl (1S)-1-(oxo{[(1R)-1-phenylethyl]amino}acetyl)pentylcarbamate]
0.01 to 1 nM	CCCC[C@H](NC(=O)O[C@H](Cc1nnc(-c2ccc(F)cc2)o1)C(C)(C)C)C(=O)C(=O)N[C@H]1CCCNC1=O [Example 25]
